From article PMC11520554, “The endocannabinoid ARA-S facilitates the activation of cardiac Kv7.1/KCNE1 channels from different species” (Channels, 2024)
Where two headings read alike, the source gives them in different places.

Columns and labels:
[1] = target: guinea pig Kv7.1/KCNE1 channel (Cavia porcellus, UniProt A6Y9U2); assay: Two-electrode voltage clamp of Kv7.1/KCNE1 expressed in Xenopus laevis oocytes; type: cell-based
Text: (§1) Isolation of Xenopus laevis oocytes was approved by the Linköping Animal Care and Use Committee (Permits #1941 and #14515) and conforms to national and international guidelines. All procedures conform to the guidelines from Directive 2010/63/EU of the European Parliament on the protection of animals used for scientific purposes. A total of 30 female adult (minimum 1 year of age) Xenopus laevis animals (from Nasco, WI, USA) underwent surgery to isolate oocytes. The frogs were anaesthetized for 15 minutes in a bath of 1.4 g/L MS-222 Sandoz (Ethyl 3-aminobenzoate methanesulfonate, Sigma Aldrich, Stockholm). The depth of anesthesia was monitored by checking for reflexes when the paws were pinched. A small incision was made on the abdomen to expose lobes of oocytes, which were collected using a surgical scissor. The small incision was closed with suture and local anesthesia (Marcain 5 mg/ml and Xylocain 2%, Distansapoteket, Stockholm) topically applied to relieve pain subsequent to surgery. At the experimental endpoint (in association with the 6th surgery), animals were sacrificed by decapitation under deep anesthesia (which was induced by the bath of 1.4 g/L MS-222 Sandoz). ARRIVE guidelines were followed. Note that experiments were performed on isolated oocytes only (no in vivo experiments were performed). Oocytes were isolated and maintained as previously described. The constructs used had the following accession numbers: human Kv7.1: NM_000218; human KCNE1: NM_000219; guinea pig Kv7.1: NM_001172821.1; guinea pig KCNE1: NM_001172972.1; rabbit Kv7.1: XM_008252197.2; rabbit KCNE1: NM_001109822. Oocytes were injected with RNA for human, guinea pig or rabbit Kv7.1 and KCNE1. The amounts injected were 12.5 ng of human Kv7.1 and 7.5 ng of human KCNE1, 1.25 ng of guinea pig Kv7.1 and 1.25 ng of guinea pig KCNE1, and 0.9 ng of rabbit Kv7.1 and 0.55 ng of rabbit KCNE1. Following injection, the oocytes were generally incubated at 16°C for 1 to 2 days.
(§2) Two-electrode voltage clamp recordings were performed at room temperature using a Dagan CA-1B amplifier (Dagan, MN, USA) or an AxoClamp 900A amplifier (Molecular Devices, CA, USA). All chemicals are from Sigma-Aldrich (Stockholm, Sweden), unless stated otherwise. N-arachidonoyl-L-serine (ARA-S) was bought from Cayman Chemicals (MI, USA) and delivered as a stock solution of 26 mM in EtOH from the supplier. The stock solution was stored at −20°C according to supplier instructions. The control solution contained (in mM): 88 NaCl, 1 KCl, 0.4 CaCl2, 0.8 MgCl2, and 15 HEPES (with pH set to 7.4 using NaOH). For ARA-S experiments, the control solution was supplemented with indicated concentrations of ARA-S. The holding voltage was set to −80 mV. Activation curves were generally generated in steps between −80 and + 60 or +80 mV in increments of 10 mV (5-s duration). The tail voltage was set to −20 or −30 mV. Control solution or ARA-S supplemented solution was continuously perfused into the oocyte chamber at a speed of 1 mL/min using a Minipuls 3 peristaltic pump (Gilson, WI, USA). ARA-S was applied until a stable effect on current amplitude was observed, achieved after approximately 10 minutes, monitored by running an application protocol stepping from a holding voltage of −80 mV to a test voltage of 0 mV every 10 seconds. In the time-matched control experiments for rabbit and guinea pig channels, experiments were performed in a similar way as with ARA-S but with EtOH only; i.e. the first control recording was performed in control solution (no vehicle) and the subsequent recordings done with vehicle only added (i.e. EtOH but no ARA-S). The tubing system and recording chamber were cleaned between cells with 70% EtOH and distilled H2O.
(§3) To quantify the voltage dependence of channel opening, tail currents were measured shortly after stepping to the tail voltage and plotted against the preceding activation voltage. […]

[2] = target: T1, human Kv7.1/KCNE1 channel (Homo sapiens, UniProt P51787); assay: as above; type: cell-based
T1 construct: expressed in transfected cells; host or cells: Xenopus laevis oocytes (RNA injection)
Text: as §1, §2, §3

[3] = target: rabbit Kv7.1/KCNE1 channel (Oryctolagus cuniculus, UniProt Q9MYS6); assay: as above; type: cell-based
Chain of rabbit Kv7.1/KCNE1 channel (Q9MYS6 whole entry): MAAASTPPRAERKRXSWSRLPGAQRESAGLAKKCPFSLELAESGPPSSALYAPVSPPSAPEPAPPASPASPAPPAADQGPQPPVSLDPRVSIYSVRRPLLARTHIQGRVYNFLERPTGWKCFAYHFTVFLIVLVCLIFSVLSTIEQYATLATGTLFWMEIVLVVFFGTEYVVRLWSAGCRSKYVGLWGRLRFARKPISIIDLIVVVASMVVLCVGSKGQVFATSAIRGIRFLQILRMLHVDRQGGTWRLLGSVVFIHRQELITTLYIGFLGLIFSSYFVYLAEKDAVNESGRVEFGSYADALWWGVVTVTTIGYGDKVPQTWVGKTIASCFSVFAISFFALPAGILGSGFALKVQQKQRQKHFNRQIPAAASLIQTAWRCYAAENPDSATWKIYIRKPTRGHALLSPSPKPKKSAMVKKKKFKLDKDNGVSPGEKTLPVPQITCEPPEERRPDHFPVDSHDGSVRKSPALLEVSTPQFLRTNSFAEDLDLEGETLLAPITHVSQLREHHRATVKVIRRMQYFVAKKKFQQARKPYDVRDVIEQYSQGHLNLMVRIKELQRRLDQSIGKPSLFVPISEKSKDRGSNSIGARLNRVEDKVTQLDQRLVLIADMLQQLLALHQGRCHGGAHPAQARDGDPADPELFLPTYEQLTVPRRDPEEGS
Chain of rabbit Kv7.1/KCNE1 channel (Q28705 whole entry partner): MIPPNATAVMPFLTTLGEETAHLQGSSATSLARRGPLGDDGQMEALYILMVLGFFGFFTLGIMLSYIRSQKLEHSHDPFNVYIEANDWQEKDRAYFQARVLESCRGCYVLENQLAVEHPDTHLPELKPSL
Text: as §1, §2, §3

[4] = system: Kv7.1/KCNE1 from all three species; assay: Two-electrode voltage clamp, summary over channels from all three species; type: cell-based; conditions: predicted from fits, range over human, guinea pig and rabbit channels
Text: Isolation of Xenopus laevis oocytes was approved by the Linköping Animal Care and Use Committee (Permits #1941 and #14515) and conforms to national and international guidelines. All procedures conform to the guidelines from Directive 2010/63/EU of the European Parliament on the protection of animals used for scientific purposes. A total of 30 female adult (minimum 1 year of age) Xenopus laevis animals (from Nasco, WI, USA) underwent surgery to isolate oocytes. The frogs were anaesthetized for 15 minutes in a bath of 1.4 g/L MS-222 Sandoz (Ethyl 3-aminobenzoate methanesulfonate, Sigma Aldrich, Stockholm). The depth of anesthesia was monitored by checking for reflexes when the paws were pinched. […]
Two-electrode voltage clamp recordings were performed at room temperature using a Dagan CA-1B amplifier (Dagan, MN, USA) or an AxoClamp 900A amplifier (Molecular Devices, CA, USA). […] ARA-S was applied until a stable effect on current amplitude was observed, achieved after approximately 10 minutes, monitored by running an application protocol stepping from a holding voltage of −80 mV to a test voltage of 0 mV every 10 seconds. […]
as §3

[5] = target: T1, human Kv7.1/KCNE1 channel; set-up: method as in PMID 36796231; conditions: cited from earlier work
[6] = system: cannabinoid receptor 1 (CB1); set-up: method as in PMID 16467152, PMID 20649563; conditions: cited from earlier work
[7] = system: CB2; set-up: method as in PMID 16467152, PMID 20649563; conditions: at concentrations as high as 30 µM; cited from earlier work
[8] = system: TRPV1 channels; set-up: method as in PMID 16467152, PMID 20649563; conditions: at concentrations as high as 30 µM; cited from earlier work
[9] = system: guinea pig heart; set-up: method as in PMID 36796231; conditions: cited from earlier work
[10] = system: human Kv7.1/KCNE1 channels; set-up: method as in PMID 34601592; conditions: compared between human and rabbit channels; cited from earlier work
[11] = system: rabbit Kv7.1/KCNE1 channels; set-up: method as in PMID 34601592; conditions: compared between human and rabbit channels; cited from earlier work
[12] = system: guinea pig-like Kv7.1/KCNE1 channel; set-up: method as in PMID 32223014; conditions: cited from earlier work
[13] = best fit, 0 mV, read-out: EC50 for current amplitude (Iamp) at 0 mV
[14] = best fit, 20 mV, read-out: EC50 for current amplitude (Iamp) at 20 mV
[15] = best fit, 20 mV, read-out: ΔIamp, 20 mV, max
[16] = best fit, 40 mV, read-out: EC50 for current amplitude (Iamp) at 40 mV

Which EC50 ([1]; best fit of concentration-response, n = 5-8, read-out: EC50 for the V50 effect) does the source give for CCCCC/C=C\C/C=C\C/C=C\C/C=C\CCCC(=O)NC(CO)C(=O)O (stereo in doubt) [ARA-S, N-arachidonoyl-L-serine] here?
Its EC50 is 6.2 µM.

And the EC50 [1, 13]?
The EC50 was 4.7 µM.

What about the EC50 [1, 14] of the same compound?
Its EC50 is 3 µM.

And the Emax [1, 15]?
Its Emax is 733%.

What about the EC50 [1, 16] of the same compound?
The EC50 was 4.2 µM.

What about the Emax ([1]; best fit, 40 mV, read-out: ΔIamp, 40 mV, max) of the same compound?
Its Emax is 631%.

What about the Emax ([1]; best fit, maximal change in GMAX, channel has time-dependent GMAX run-up, read-out: ΔGMAX, max) of the same compound?
The Emax was 188%.

And the “ΔV50, max” value ([1]; best fit, maximal shift in V50)?
Its value is −70.4 mV.

And the EC50 ([1]; best fit, read-out: EC50 for the maximal conductance (GMAX) effect)?
The EC50 was 1.6 µM.

What about the “Itailmax;ARA-S” value ([1]; representative cell, 10 µM ARA-S (Itailmax;ctrl = 4.4 µA)) of the same compound?
The value was 11.2 µA.

What about the “V50;ARA-S” value ([1]; representative cell, 10 µM ARA-S (V50;ctrl = +44.1 mV)) of the same compound?
Its value is −17.5 mV.

And the “ARA-S effect on current amplitude at 0 mV reversed upon washout” value ([2]; 10 µM of ARA-S, n = 5, mean ± sem)?
The value was 50 ± 5%.

What about the “Itailmax;ARA-S” value ([2]; representative cell, 10 µM ARA-S (Itailmax;ctrl = 6.2 µA)) of the same compound?
The value was 10.1 µA.

And the “V50;ARA-S” value ([2]; representative cell, 10 µM ARA-S (V50;ctrl = +30.2 mV))?
Its value is −23.0 mV.

What about the EC50 ([3]; best fit of concentration-response, n = 6-7, read-out: EC50 for the V50 effect) of the same compound?
The EC50 was 3.1 µM.

What about the EC50 [3, 13] of the same compound?
The EC50 was 2.2 µM.

What about the Emax ([3]; best fit, 0 mV, read-out: ΔIamp, 0 mV, max) of the same compound?
Its Emax is 515%.

And the EC50 [3, 14]?
The EC50 was 1.2 µM.

And the Emax [3, 15]?
The Emax was 225%.

What about the “ΔV50, max” value ([3]; best fit, maximal shift in V50) of the same compound?
Its value is −60.5 mV.

What about the “Itailmax;ARA-S” value ([3]; representative cell, 10 µM ARA-S (Itailmax;ctrl = 3.7 µA)) of the same compound?
The value was 5.7 µA.

What about the “V50;ARA-S” value ([3]; representative cell, 10 µM ARA-S (V50;ctrl = +23.9 mV)) of the same compound?
Its value is −33.5 mV.

And the “anticipated maximal effect on V50” value [4]?
The value was −60 to −80 mV.

And the EC50 ([4]; read-out: concentration required to reach 50% of the maximal effect on V50)?
The EC50 was 3 to 9 µM.

And the EC50 ([5]; best fit of concentration-response, human data duplicated, read-out: EC50 for the V50 effect)?
The EC50 was 8.9 µM.

And the “ΔIamp, 0 mV, max” value ([5]; best fit, 0 mV)?
The value was “+497%”.

What about the EC50 [5, 13] of the same compound?
The EC50 was 2 µM.

What about the “ΔIamp, 20 mV, max” value ([5]; best fit, 20 mV) of the same compound?
Its value is “+197%”.

What about the EC50 [5, 14] of the same compound?
The EC50 was 1.4 µM.

And the “ΔIamp, 40 mV, max” value ([5]; best fit, 40 mV)?
Its value is “+58%”.

What about the EC50 [5, 16] of the same compound?
Its EC50 is 0.6 µM.

And the “ΔGMAX, max” value ([5]; best fit, maximal change in GMAX)?
Its value is “+83%”.

What about the “ΔV50, max” value ([5]; best fit, maximal shift in V50, human data duplicated) of the same compound?
Its value is −79.6 mV.

And the EC50 ([5]; best fit, human data duplicated, read-out: EC50 for the maximal conductance (GMAX) effect)?
The EC50 was 5.7 µM.

What about the “binding to cannabinoid receptor 1 (CB1)” value [6] of the same compound?
The value was “bind only weakly”.

What about the “binding to CB2” value [7] of the same compound?
Its value is “no detectable binding”.

What about the “binding to TRPV1 channels” value [8] of the same compound?
Its value is “no detectable binding”.

And the “effect on prolonged QT interval” value [9]?
Its value is “reversed”.

And the “effect on prolonged action potential duration” value [9]?
The value was “reversed”.

For CC/C=C\C/C=C\C/C=C\C/C=C\C/C=C\C/C=C\CCC(=O)O [DHA, docosahexaenoic acid], which effects on channel [10] is on record?
Its effects on channel is “largely comparable activating effects”.

What about the effects on channel [11] of the same compound?
Its effects on channel is “largely comparable activating effects”.

With CCCCC/C=C\C/C=C\CCCCCCCC(=O)NCC(=O)O [Lin-Gly, linoleoyl glycine] as the compound, how does the “effects on channel compared to the human Kv7.1/KCNE1 channel” value [12] read?
The value was “impaired effects”.
